Test results: patent US20240138417A1, “TRICHODERMA-BASED BIOENHANCER FOR FOLIAR APPLICATION IN PLANTS” (YPF TECNOLOGÍA S.A., priority 2022, published 2024)

Assays:
[1] = system: Arabidopsis thaliana seedlings; assay: Auxin activity, root growth bioassay in A. thaliana seedlings; format: in vivo; conditions: 4-days old seedlings, MS-Agar; formulation 0.1, 1, 10, 25% v/v; IAA 1, 10 and 100 nM
Procedure: Auxin Activity • Auxin activity was determined by measuring the growth of the main root in seedlings of Arabidopsis thaliana, and the amount of side roots to estimate the root density according to Iglesias et al. (2014). Briefly, 4-days old A. thaliana seedlings were grown in a MS-Agar medium supplemented with different concentrations of the formulation of Example 5 (0.1, 1, 10, 25% v/v). As reference, different concentrations of indole-acetic acid (IAA) were used (1, 10 and 100 nM). Three independent assays were carried out, with 8 seedlings per treatment (N=24).

[2] = system: cucumber cotyledons (Cucumis sativus var. Runner); assay: Cytokinin activity, cucumber cotyledons greening bioassay (chlorophyll content); conditions: incubated 20 h, then light 16 hs; SPAD detector and acetone extraction
Procedure: Cytokinin Activity • Cytokinin activity was determined by quantifying the chlorophyll content in cucumber cotyledons (Fletcher et al., 1982). Briefly, cucumber (Cucumis sativus var. Runner) seeds were germinated and grown in darkness for 7 days. Then, the cotyledons were cut and incubated for 20 h under different concentrations of the formulation of Example 5 (0.1, 1, 10 and 100% v/v). As a positive control, different concentrations of a cytokinin analog, kinetin, were used (0.01, 0.1, 1 and 10 μg/ml). Then the cotyledons were exposed to light for 16 hs, and the chlorophyll content was determined by two methods: by means of a manual SPAD detector (Chlorophyll meter SPAD-502, Konica Minolta), and by extracting the chlorophyll with acetone (Arnon 1949). Three independent assays were carried out, with 8 cotyledons per treatment (N=24).

SMILES	growth of the main root [1]	number of side roots [1]	greening of cotyledons (chlorophyll content) [2]
O=C(O)Cc1c[nH]c2ccccc12 [IAA, indole-acetic acid]	dose-dependent shortening of the main root	increase in the number of side roots	
c1coc(CNc2ncnc3[nH]cnc23)c1 [kinetin]			stimulated the greening of the etiolated cotyledons depending on the dose
